“Also recorded” adds a separate entry of the source.
Tests used:
CD69 = CD69 expression on CD3+ T cells in draining lymph nodes (flow cytometry); type: in vivo, C57BL/6J mice or IFNAR−/− mice; settings: 24 hr
Experimental: (§1) The data in FIG. 3 corresponds to an experiment wherein A) C57BL/6J mice (n=3) were injected with 50 μl of 6 mM R-DOTAP or 280 mM Sucrose subcutaneously in the foot pads. At indicated times popliteal draining lymph nodes from each mouse were isolated and single suspensions of lymph nodes were enumerated using hemocytometer to obtain total cell numbers. B) C57BL/6J (n=3) or IFNAR−/− (n=3) mice were injected with 50 μl of 6 mM R-DOTAP or 280 mM sucrose in the foot pad and draining popliteal lymph nodes were harvested from each mouse and enzymatically digested lymph nodes were assessed for the total cell number at 24 hr (B) using hemocytometer and expression of CD69 on CD3+ T cells (B) was assessed using flowcytometry. A-B) data represent total number of cells in each draining lymph node. C) Data represent percent CD69+ cells each group 24 hr after vaccination (n=3 mice per group).
IFN reporter cell assay and Cell phenotypic analysis: For detecting IFN, the supernatants from type I IFN producing cells were added to B16-Blue™ IFN-α/β Cells in a 96 well plate. After 24 hr incubation, the supernatants were assayed for SEAP activity using QUANTI-Blue™ reagent (InvivoGen, USA) according to manufacturer's instructions. Briefly, 50 μl of cell supernatants containing SEAP was mixed with 150 μl QUANTI-Blue™ reagent and incubated for 3-4 hr at 37° C. and absorbance was measured at 650 nm using a spectrometer. The concentrations of type I IFN in test samples were quantified using a standard curve generated from recombinant type I IFNβ treated B16-Blue™ IFN-α/β Cells in the same assay. To measure CD69 expression, single cell suspensions of lymph nodes were stained with fluorochrome conjugated CD3, and CD69 and percent CD69+CD3+ T cells in each draining lymph node were measured using flowcytometry.
To further understand the effect and ability of cationic lipids to activate the type I interferons, C57BL/6J mice or IFNAR−/− mice were injected with 50 μl of 6 mM R-DOTAP nanoparticles or 6 mM S-DOTAP or 280 mM sucrose subcutaneously in the foot pads. […]

type I interferon genes [1] = test: IFNα and IFNβ gene expression in popliteal draining lymph nodes (Taqman gene expression assay, RT-PCR); type: in vivo, C57BL/6J mice; settings: 50 μl of 6 mM nanoparticles s.c. foot pads; popliteal DLN; 3 h or 24 h
Experimental: The data in FIG. 2 corresponds to an experiment wherein C57BL/6J mice (n=2) were injected with 50 μl of 6 mM R-DOTAP or S-DOTAP nanoparticles subcutaneously in the foot pads. Mice injected with PBS, and LPS (50 μg/mouse) (24 h time point) were used as negative and positive controls respectively. 3 h or 24 hr after injection, popliteal draining lymph nodes from each mouse were pooled and lysed in RLT buffer and processed for relative gene expression analysis using Taqman gene expression assay and RT-PCR.
RNA isolation, Nano string Analysis, and gene expression assay: For gene expression analysis, draining popliteal lymph nodes (n=4) were enzymatically digested using cell dissociation cocktail for 60 min at 37° C., and single cell suspensions were used to sort CD11c+ ells using Sony SY3200 cell sorter. Sort purified CD11c+ cells (25K cells) were lysed in Qiagen's RLT cell lysis buffer (Qiagen, USA) and total RNA was isolated using Qiagen total RNA isolation kit (Qiagen, USA). […] Binding of mRNA was detected with Nanso String nCounter analysis system, and raw count data was normalized and statistically analyzed using SAS program by UK genomics core laboratory. For confirmation studies using RT-PCR, the lymph nodes were directly lysed in RLT cell lysis buffer, and the total isolation RNA was reverse transcribed to cDNA using QuantiTect reverses transcription kit (Qiagen, USA). […]

type I interferon genes [2] = test: Inflammatory gene expression in sorted CD11c+ cells of draining lymph nodes (nCounter mouse inflammation kit, nanostring); type: in vivo, C57BL/6J mice
Experimental: The data in FIG. 1 corresponds to an experiment wherein C57BL/6J mice (n=4) were injected with 100 μl of 12 mM R-DOTAP liposome nanoparticles subcutaneously behind the neck. Mice injected with PBS, and LPS (50 μg/mouse) (24 h time point) were used as negative and positive controls respectively. 4 h or 24 hr after injection, axillary and brachial draining lymph nodes from each mouse were pooled and processed by collagenase digestion. CD11c positive cells (˜20,000 cells) in these lymph node cell suspensions were sort-purified and lysed in RLT buffer and processed for relative gene expression analysis using nCounter® mouse inflammation kit and nanostring technologies.
RNA isolation, Nano string Analysis, and gene expression assay: For gene expression analysis, draining popliteal lymph nodes (n=4) were enzymatically digested using cell dissociation cocktail for 60 min at 37° C., and single cell suspensions were used to sort CD11c+ ells using Sony SY3200 cell sorter. Sort purified CD11c+ cells (25K cells) were lysed in Qiagen's RLT cell lysis buffer (Qiagen, USA) and total RNA was isolated using Qiagen total RNA isolation kit (Qiagen, USA). Total RNA obtained was sent to University of Kentucky genomics core laboratory (Lexington, KY) where total RNA was mixed with Ncounter™ mouse inflammation panel (Nano String Technologies, Seattle, WA) which can measure over 547 genes involved in immune response. Binding of mRNA was detected with Nanso String nCounter analysis system, and raw count data was normalized and statistically analyzed using SAS program by UK genomics core laboratory. For confirmation studies using RT-PCR, the lymph nodes were directly lysed in RLT cell lysis buffer, and the total isolation RNA was reverse transcribed to cDNA using QuantiTect reverses transcription kit (Qiagen, USA). The cDNA was then amplified using TaqMan gene expression system (Applied biosystems, USA) to detect and quantify mouse IFNα and IFNβ transcripts relative to GAPDH expression using quantitative PCR reaction.
To assess cationic nanoparticle induced gene expression, C57BL/6J mice were injected with 100 μl of 12 mM R-DOTAP nanoparticles subcutaneously behind the neck, and inflammatory gene expression in draining lymph nodes analyzed 4 or 24 hours post vaccination. Mice injected with PBS, and LPS (50 μg/mouse) (24 h time point) were used as negative and positive controls respectively. 4 h or 24 hr after injection, axillary and brachial draining lymph nodes from each mouse were pooled and processed by collagenase digestion. Activated dendritic cells (CD11c^+) cells in the lymph node cell suspensions were sort-purified and lysed in RLT buffer and processed for relative gene expression analysis using nCounter® mouse inflammation kit and nanostring technologies.

draining lymph nodes = test: Cell recruitment: size and total cell number of draining lymph nodes; type: in vivo, C57BL/6J mice or IFNAR−/− mice
Experimental: as §1
To further understand the effect and ability of cationic lipids to activate the type I interferons, C57BL/6J mice or IFNAR−/− mice were injected with 50 μl of 6 mM R-DOTAP nanoparticles or 6 mM S-DOTAP or 280 mM sucrose subcutaneously in the foot pads. 24 hr after injection, popliteal draining lymph nodes from each mouse were isolated and single cell suspensions of lymph nodes were stained with fluorochrome conjugated CD3 and CD69. […] Type I IFN is known to inhibit lymphocyte egress from lymphoid organs through the up-regulation of CD69 which, in turn, inhibits the sphingosine 1 phosphate receptor required for lymphocyte egress. We therefore postulated that injection of both S-DOTAP and R-DOTAP would result in the upregulation of CD69 in the DLN. […] The data represents % CD69+CD3+ T cells in each draining lymph node.

[3] = wild type mice, 50 μl of 6 mM s.c. foot pads

CCCCCCCC/C=C\CCCCCCCC(=O)OC[C@@H](C[N+](C)(C)C)OC(=O)CCCCCCC/C=C\CCCCCCCC [R-DOTAP, (R)-1,2-dioleoyl-3-trimethylammonium propane]
CD69 expression in DLN T cells (CD69; IFNαR knock-out mice): no CD69 upregulation
CD69 expression in DLN T cells (CD69; [3]): up-regulation of CD69 most strongly in T cells
Type I interferon (IFNα, IFNβ) gene expression, RT-PCR (type I interferon genes [1]): strong inducers; also recorded: up-regulation
Expression of IFN-1α and IFN-1β, increase relative to LPS positive control (type I interferon genes [2]; 100 μl of 12 mM nanoparticles s.c. behind the neck, CD11c+ cells of axillary and brachial DLN, 4 or 24 h, LPS 50 μg/mouse): greater than 5 fold
Expression of several inflammatory genes (type I interferon genes [2]; 100 μl of 12 mM s.c., both time points (4 h, 24 h)): significantly alter
Expression of other genes including Cxc110 (type I interferon genes [2]; 100 μl of 12 mM s.c., compared with LPS): significantly increased and more comparable to levels induced by LPS
Type I interferon gene expression (nanostring) (type I interferon genes [2]; FIG. 1, mean of 4 mice): up-regulation
DLN size (draining lymph nodes; 50 μl of 6 mM s.c. foot pads, without antigen, wild type mice): visible increase
Increase in total cell number in DLN in IFNαR knock-out mouse versus wild type (draining lymph nodes; IFNαR knock-out mouse, 24 hr): greatly reduced
Total cell number in DLN (draining lymph nodes; wild type mice, over a 7-day period): steady increase

CCCCCCCC/C=C\CCCCCCCC(=O)OCC(C[N+](C)(C)C)OC(=O)CCCCCCC/C=C\CCCCCCCC (stereo not drawn) [S-DOTAP, 1,2-dioleoyl-3-trimethyl ammonium-propane]
CD69 expression in DLN T cells (CD69; [3]): up-regulation of CD69 most strongly in T cells
Type I interferon (IFNα, IFNβ) gene expression, RT-PCR (type I interferon genes [1]): strong inducers; also recorded: up-regulation

Source: patent US12551460B2, “Methods and compositions comprising cationic lipids for stimulating type 1 interferon genes” (PDS BIOTECHNOLOGY COPORATION, priority 2017, dated 2026)
